Assay results as given in the NIST ThermoML archive (doi:10.1021/acs.jced.7b00902).
Numbers after ± are expanded uncertainties.

Conditions: Surface laser light scattering (SLLS); for viscosity: Liquid

FC(F)(F)/C=C/Cl [(E)-1-chloro-3,3,3-trifluoroprop-1-ene]
Conditions	surface tension liquid-gas [mN/m]	viscosity [mPa·s]
303.14 K	13.3 ± 0.2	0.2857 ± 0.016
313.15 K	12.37 ± 0.19	0.2504 ± 0.015
323.19 K	10.89 ± 0.16	0.2265 ± 0.014
333.18 K	9.74 ± 0.15	0.2079 ± 0.013
343.16 K	8.62 ± 0.13	0.1891 ± 0.013
353.19 K	7.58 ± 0.11	0.1695 ± 0.012
363.15 K	6.4 ± 0.1	0.1595 ± 0.011
373.14 K	5.38 ± 0.08	0.1406 ± 0.011
373.17 K	5.38 ± 0.08	0.1448 ± 0.011
383.15 K	4.37 ± 0.07	0.1318 ± 0.011
393.17 K	3.41 ± 0.05	0.1191 ± 0.01
403.15 K	2.45 ± 0.04	0.1047 ± 0.01

O=C(C(F)(F)C(F)(F)F)C(F)(C(F)(F)F)C(F)(F)F [dodecafluoro-2-methylpentan-3-one]
Conditions	surface tension liquid-gas [mN/m]	viscosity [mPa·s]
303.16 K	10.09 ± 0.15	0.585 ± 0.026
313.12 K	9.26 ± 0.14	0.4939 ± 0.023
313.18 K	9.24 ± 0.14	0.5033 ± 0.023
323.15 K	8.43 ± 0.13	0.4357 ± 0.021
333.12 K	7.56 ± 0.12	0.3776 ± 0.019
343.15 K	6.7 ± 0.1	0.329 ± 0.017
353.16 K	5.84 ± 0.09	0.2907 ± 0.016
363.14 K	4.99 ± 0.08	0.2569 ± 0.015
373.14 K	4.19 ± 0.06	0.228 ± 0.014
383.13 K	3.44 ± 0.05	0.1998 ± 0.013
393.15 K	2.71 ± 0.04	0.1719 ± 0.012
403.17 K	2.02 ± 0.03	0.1471 ± 0.011
413.18 K	1.37 ± 0.02	0.1309 ± 0.011
423.15 K	0.78 ± 0.01	0.104 ± 0.01
433.02 K	0.27 ± 0.01	0.0768 ± 0.0095
